Here are results for two molecules from patent US12343344B2 (NOVARTIS AG, priority 2019, dated 2025).

What is called IC50 is the point on the concentration scale where inhibition reaches its midpoint. Low values mean greater potency in that assay, high ones weaker potency in that assay.

SMILES strings stand for the structures. In brackets after ≈: the same amount, converted by molar mass.

Data set [1] concerns Cyclin D1, phospho-RB in HCC827 cells. Description: immunoblot of signalling proteins in HCC827 cells. Type of data set: cell-based. Conditions: HCC827, 48 hours treatment, TNO155 together with ribociclib (FIG. 2).
Description: HCC827 cells were plated in 6-well plates at a density of 2×10^5 cells/well in 2 ml of complete culture medium. […] 48 hours after the treatment, cells were harvested in freshly prepared RIPA cell lysis buffer supplemented with Protease and Phosphatase Inhibitor Cocktail. Proteins extracted from cell lysates were separated by electrophoresis using a NuPAGE 4-12% Bis-Tis gel and were transferred to nitrocellulose membranes, followed by standard immunobloting procedures. The primary antibodies used were all from Cell Signaling Technology with the following catalog numbers: phospho-RB (S807/811, #8516), Cyclin D1 (#2978), cleaved PARP (#9546), phospho-ERK (T202/Y204, #4370), phospho-RSK3 (T356/S360, #9348), phospho-AKT (S473, #4060) and Tubulin (#3873). The signals were visualized by simantanous incubation with goat anti-rabbit secondary antibodies conjugated with Alexa Fluor® 700 and the goat anti-mouse secondary antibody conjugated with IRDye 800 CW for Tubulin (protein loading control) and scanning with an Odyssey Infrared Imager System.
The test system of data set [2] is KYSE-520 (esophageal squamous cell carcinoma). Kind of data set: antiproliferation in KYSE-520 cells. Type of data set: cell-based. Conditions: Homo sapiens.
Data set [3] deals with phosphorylated ERK1/2 (pERK). Kind of data set: in vitro pERK inhibition in DETROIT-562 cells. Conditions: Homo sapiens. It counts as cell-based. The text has this:
(§1) SHP2 inhibition can be measured by assessing biomarkers within the MAPK signaling pathway, such as decreased levels of phosphorylated ERK1/2 (pERK) and downregulation of dual specificity phosphatase 6 (DUSP6) mRNA transcript.

For data set [4], the system named is DETROIT-562 (pharyngeal squamous cell carcinoma). Description: antiproliferation in DETROIT-562 cells. It counts as cell-based. Conditions: Homo sapiens.
In data set [5] the test system is tumor DUSP6 biomarker. Description: dose fractionation studies with tumor DUSP6 biomarker. The conditions noted are these: attained for at least 80% of the dosing interval. Type of data set: in vivo.
From the text: as §1

The nature of data set [6]: tolerability in rats. It counts as in vivo.
A short description of data set [7]: tolerability in mice. It counts as in vivo.
Data set [8] deals with pRb-positive cell lines derived from diverse cancer types. Description: pRb phosphorylation and cell cycle in pRb-positive cell lines. Type of data set: cell-based. Conditions: more than 40 pRb-positive cell lines.
For data set [9], the system named is lineage-matched pRb-negative cell lines. Description: cell cycle progression in pRb-negative cell lines. Type of data set: cell-based.
In data set [10] the test system is tumor xenograft models. Kind of data set: in vivo anti-tumor activity in tumor xenograft models. The conditions noted are these: subsets of xenograft models incl. breast, melanoma, neuroblastoma, malignant rhabdoid, lung, pancreas, hematological malignancies.
Where [11] appears, read: up to 28 days, up to 150 mg/kg once daily orally.
Setting [12] is: up to 28 days, up to 250 mg/kg once daily orally.

On to `C[C@@H]1OCC2(CCN(c3cnc(Sc4ccnc(N)c4Cl)c(N)n3)CC2)[C@@H]1N` [TNO155, (3S,4S)-8-(6-amino-5-((2-amino-3-chloropyridin-4-yl)thio)pyrazin-2-yl)-3-methyl-2-oxa-8-azaspiro[4.5]decan-4-amine], for which the “ribociclib-induced cyclin D1 accumulation” value in [1] is “prevention of ribociclib-induced cyclin D1 accumulation”. In addition, the IC50 in [2] turned out to be 0.0422 µg/mL (≈ 0.1 µM); in data set [3], 0.0148 µg/mL (≈ 0.0351 µM); in data set [4] it was 0.198 µg/mL (≈ 0.47 µM). The “PD inhibition at which maximal efficacy is achieved” value in [5] turned out to be 50%.

As for `CN(C)C(=O)c1cc2cnc(Nc3ccc(N4CCNCC4)cn3)nc2n1C1CCCC1` [ribociclib, 7-cyclopentyl-N,N-dimethyl-2-((5-(piperazin-1-yl)pyridin-2-yl)amino)-7H-pyrrolo[2,3-d]pyrimidine-6-carboxamide], the myelosuppression entry in [6] (correlated with pRb inhibition) and in data set [7] (correlated with pRb inhibition) was “myelosuppression was observed” each time. Also, the body weight loss in data set [6] (setting [11]) and in [7] (setting [12]) was at most 12.5% in each case. Besides, the tolerability result in data set [6] (setting [11]) and in data set [7] (setting [12]) was “well-tolerated” each time. In addition, the “G1 to S phase cell cycle progression” value in data set [8] is “interfered”. Also, the “Retinoblastoma protein (pRb) phosphorylation” value in [8] is recorded as “inhibited”. Besides, the “effect on cell cycle progression” value in data set [9] is “no effect”. Moreover, the “in vivo anti-tumor activity” value in data set [10] was “demonstrated in vivo anti-tumor activity”.
